# Source: patent publication US20250332112A1, “IONIZABLE CATIONIC LIPIDS FOR LIPID NANOPARTICLES” (GENEVANT SCIENCES GMBH, priority 2022, published 2025)
# What was measured:
# [1] = Particle characteristics of LNPs containing luciferase mRNA and novel ionizable lipids; format: physicochemical; conditions: Table 6; luciferase mRNA LNP 1.6:54.6:32.8:10.9
# How it was run: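 LNPs made from PEG-lipid, ionizable lipid, cholesterol and phospholipid in ethanol, T-mixed with luciferase mRNA in 100 mM acetate pH 5. Products were dialysed, concentrated, and dialysed into 5 mM Tris, 10% sucrose, pH 8, then 0.2 μm filtered. mRNA was measured by RiboGreen, and size and polydispersity by dynamic light scattering on a Zetasizer.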
# [2] = Parent ionizable lipid remaining in liver at 6 h after luciferase mRNA LNP (LC-MS); format: in vivo; conditions: 6 h after IV 0.5 mg/kg Luciferase mRNA LNP
# [3] = test system: luciferase activity in the liver; experiment: Luciferase activity in liver after intravenous luciferase mRNA LNP; format: in vivo; conditions: 0.5 mg/kg IV, 6 h post-IV administration, BALB/c mice (n = 4)
# [4] = Lipid clearance from liver over time after human OTC mRNA LNP (LC-MS); format: in vivo; conditions: IV 0.5 mg/kg human OTC mRNA LNP, male C57BL/6 mice (n = 4)
# Procedure: (§1) LNP formulations encapsulating ornithine transcarbamylase mRNA were injected intravenously at the specified dose levels to male C57BL/6 mice (6-8 weeks old).
# (§2) Liver tissues were treated with PBS and homogenized with a FastPrep machine, 3 cycles of 5 m/s×15 s. Homogenates from the PBS-treated control animals was pooled and used for standard curve preparation. Samples were extracted into a deep well plate with 250 μL of an internal suitability standard. Plates were centrifuged for 15 min at 4° C. and 2000 rpm. Analysis was performed using an Agilent 6520 QTOF coupled to an Agilent 1290 UHPLC, using reverse-phase LC separation. Quantitation of the ionizable lipid was by MS/MS against a calibration curve spiked into appropriately matched blank matrix. Calibration used a similar class of synthetic lipid as internal standard.
# At various timepoints post-dose, lipid levels were assessed in the liver. Some novel ionizable lipids reported more rapid clearance rates compared to the benchmark (Table 19).
# [5] = test system: human OTC expression in the liver; experiment: Dose response of human OTC mRNA LNP, OTC expression in liver (ELISA); format: in vivo; conditions: 24 h, male C57BL/6 mice (n = 4)
# Procedure: as §1
# Liver homogenates were prepared with PBS, Halt protease inhibitor cocktail and FastPrep homogenization, standardized to 2 mg/mL protein with a BCA Protein Assay, and then analyzed by ELISA. Briefly, samples were diluted with PBS and plated on Nunc Maxisorp plates. A standard curve using human […] protein was prepared from the naïve animal controls (vehicle). After 2 h incubation the plates were washed, and the primary antibody was added. After 1 h incubation, the secondary antibody was added and incubated for another hour. After washing, TMB Substrate was added for color development and the reaction was stopped with 2 N sulfuric acid. The plate was read at 450/570 OD.
# At 24 h post-dose, the novel lipid formulations reported dose-dependent increases in human OTC expression in the liver (Table 15).
# [6] = test system: EGFP expression in the liver; experiment: EGFP expression in liver after intravenous EGFP mRNA LNP (ELISA); conditions: Table 27; 0.5 mg/kg IV, 24 h post-IV administration, BALB/c mice (n = 4)
# Procedure: LNP formulations encapsulating enhanced green fluorescent protein mRNA were injected intravenously at 0.5 mg/kg to female BALB/c mice (6-8 weeks old). On day of injection, the LNP stocks were filtered and diluted to the required dosing concentration with phosphate buffered saline. At 24 hours post-administration, animals were anaesthetized with a lethal dosage of ketamine/xylazine. Liver samples (left lateral lobe) were collected, weighed, and flash frozen in liquid nitrogen. Liver samples were stored in FastPrep® tubes at −80° C. until analyzed for EGFP expression.
# Liver homogenates were prepared in cell extraction buffer, diluted, and analyzed for EGFP protein levels using ELISA, according to manufacturer's instructions (Abcam, GFP ELISA Kit).
# [7] = Particle characteristics of LNPs containing EGFP mRNA and novel ionizable lipids; format: physicochemical; conditions: Table 23; EGFP mRNA LNP 1.6:54.6:32.8:10.9
# Procedure: The lipid solution contains 4 components: a PEG-conjugated lipid, an ionizable lipid, cholesterol, and a phospholipid (e.g., DSPC). Lipid stocks were prepared using the lipid identities and molar ratios as described, to achieve a total concentration of ˜7 mg/mL in 100% ethanol. […] Equal volumes of the lipid and nucleic acid solutions were blended at a flow rate of 400 mL/min through a T-connector, and diluted with ˜4 volumes of PBS, pH 7.4. Formulations were placed in Slide-A-Lyzer dialysis units (MWCO 10,000) and dialyzed overnight against 10 mM Tris, 500 mM NaCl, pH 8 buffer. Following dialysis, the formulations were concentrated to ˜0.6 mg/mL using VivaSpin concentrator units (MWCO 100,000) and dialyzed overnight against 5 mM Tris, 10% sucrose, pH 8 buffer. Formulations were filtered through a 0.2 μm syringe filter (PES membrane). Nucleic acid concentration was determined by the RiboGreen assay. Particle size and polydispersity were determined using a Malvern Nano Series Zetasizer.
# LNP formulations containing novel ionizable lipids all produced stable particles with high encapsulation efficiency (Tables 20-23).
# [8] = Parent ionizable lipid remaining in liver at 24 h after EGFP mRNA LNP (LC-MS); format: in vivo; conditions: Table 31; 24 h after IV 0.5 mg/kg EGFP mRNA LNP, female BALB/c mice (n = 4)
# Procedure: as §2
# At 24 h post-dose, some treatment groups reported lower levels of novel ionizable lipid in mouse liver compared to the benchmark (Tables 28-31).
# [9] = Table 18, female BALB/c mice (n = 4)
SMILES,"Parent ionizable lipid remaining in liver, Average [2, 9]","Parent ionizable lipid remaining in liver, Average ([4]; 0.25 h post-dose)","Parent ionizable lipid remaining in liver, Average ([4]; 1 h post-dose)","Parent ionizable lipid remaining in liver, Average ([4]; 3 h post-dose)","Parent ionizable lipid remaining in liver, Average ([4]; 6 h post-dose)","Parent ionizable lipid remaining in liver, Average ([4]; 24 h post-dose)","Parent ionizable lipid remaining in liver, Average ([4]; 168 h post-dose)",Human OTC expression ([5]; 0.3 mg/kg IV),Human OTC expression ([5]; 1 mg/kg IV),Human OTC expression ([5]; 3 mg/kg IV),EGFP [6],Final Product % EE [7],Final Product PDI [7],Final Product Z-avg [7],"Parent ionizable lipid remaining in liver, Average [8]",also measured
"CCCCCCCCCCN(C(=O)CCCN(C)C)C(CCCCCCCCC)CCCCCCC(F)(F)C(=O)OCCC(CCCCCC)CCCCCC (stereo not shown) [Compound 16, 3-hexylnonyl 9-(N-decyl-4-(dimethylamino)butanamido)-2,2-difluorooctadecanoate]",17.06 nmol/g liver,11.11 nmol/g liver,15.47 nmol/g liver,10.91 nmol/g liver,4.71 nmol/g liver,1.33 nmol/g liver,0.04 nmol/g liver,1155 ng hOTC/mg protein in liver,4127 ng hOTC/mg protein in liver,10316 ng hOTC/mg protein in liver,–,–,–,–,–,"Final Product % EE [1]: 95%; Final Product PDI [1]: 0.10; Final Product Z-avg [1]: 76 nm; Parent ionizable lipid remaining in liver, Average ([2]; Table 17, female mice (n = 4)): 6.32 nmol/g liver; Luc Activity ([3]; Table 13): 4.39E+07 pg/g liver"
CCCCCCCCCCC(CCCCCCC(=O)OCC(CCCCCC)CCCCCCCC)N(CCCCCCC(F)(F)C(=O)OCC(CCCCCC)CCCCCCCC)C(=O)CCCN(C)C (stereo not shown) [Compound 33],–,33.97 nmol/g liver,98.57 nmol/g liver,76.20 nmol/g liver,86.57 nmol/g liver,58.68 nmol/g liver,6.22 nmol/g liver,660 ng hOTC/mg protein in liver,2954 ng hOTC/mg protein in liver,11080 ng hOTC/mg protein in liver,–,–,–,–,–,–
"CCCCCCCCCCON(C(=O)CCCN(C)C)C(CCCCCCCCCC)CCCCCCC(=O)OCCC(CCCCC)CCCCC (stereo not shown) [Compound 43, 3-pentyloctyl 8-[N-(decyloxy)-4-(dimethylamino)butanamido]octadecanoate]",23.83 nmol/g liver,22.97 nmol/g liver,38.91 nmol/g liver,28.99 nmol/g liver,24.19 nmol/g liver,13.50 nmol/g liver,0.19 nmol/g liver,1247 ng hOTC/mg protein in liver,5713 ng hOTC/mg protein in liver,12887 ng hOTC/mg protein in liver,–,–,–,–,–,"Final Product % EE [1]: 99%; Final Product PDI [1]: 0.05; Final Product Z-avg [1]: 73 nm; Parent ionizable lipid remaining in liver, Average ([2]; Table 17, female mice (n = 4)): 25.97 nmol/g liver; Luc Activity ([3]; Table 13): 1.04E+08 pg/g liver"
CCCCCCCCCCC(CCCCCCC(=O)OCCC(CCCCC)CCCCC)N(CCCCCCCC(=O)OCCC(CCCCC)CCCCC)C(=O)CCCN(C)C (stereo not shown) [Compound 67],31.32 nmol/g liver,12.37 nmol/g liver,21.11 nmol/g liver,16.12 nmol/g liver,10.82 nmol/g liver,11.31 nmol/g liver,0.72 nmol/g liver,–,–,–,–,–,–,–,–,Luc Activity ([3]; Table 12): 1.31E+08 pg/g liver
"CCCCCCCCCCN(C(=O)CCCN(C)C)C(CCCCCCCCC)CCCCC(F)C(=O)OCC(CCCCCC)CCCCCCCC (stereo not shown) [Compound 120, 2-Hexyldecyl 7-(N-decyl-4-(dimethylamino)butanamido)-2-fluorohexadecanoate]",–,–,–,–,–,–,–,–,–,–,1.90E+07 pg/g liver,99%,0.15,69 nm,4.8 nmol/g liver,–
"CCCCCCCCCCN(C(=O)CCCN(C)C)C(CCCCCCCCC)CCCCC(F)C(=O)OC(CCCCCC)CCCCCC (stereo not shown) [Compound 121, Tridecan-7-yl 7-(N-decyl-4-(dimethylamino)butanamido)-2-fluorohexadecanoate]",–,–,–,–,–,–,–,–,–,–,3.81E+07 pg/g liver,99%,0.10,77 nm,2.1 nmol/g liver,–
"CCCCCCCCCCN(C(=O)CCCN(C)C)C(CCCCCCCCC)CCCCC(F)C(=O)OC(CCCCCCC)CCCCCCC (stereo not shown) [Compound 122, Pentadecan-8-yl 7-(N-decyl-4-(dimethylamino)butanamido)-2-fluorohexadecanoate]",–,–,–,–,–,–,–,–,–,–,2.35E+07 pg/g liver,100%,0.13,70 nm,6.3 nmol/g liver,–
"CCCCCCCCCCN(C(=O)CCCN(C)C)C(CCCCCCCCC)CCCCC(F)C(=O)OC(CCCCCCCC)CCCCCCCC (stereo not shown) [Compound 123, Heptadecan-9-yl 7-(N-decyl-4-(dimethylamino)butanamido)-2-fluorohexadecanoate]",–,–,–,–,–,–,–,–,–,–,3.94E+07 pg/g liver,99%,0.15,73 nm,10.5 nmol/g liver,–
